The text below walks through data of article PMC6277577, “In Salmonella enterica, OatA (Formerly YjgM) Uses O-Acetyl-Serine and Acetyl-CoA to Synthesize N,O-Diacetylserine, Which Upregulates Cysteine Biosynthesis” (Frontiers in Microbiology, 2018).

The target in one series is T1, OatA (formerly YjgM) (Salmonella enterica, UniProt Q08021).
T1 sequence (Q08021 1-167): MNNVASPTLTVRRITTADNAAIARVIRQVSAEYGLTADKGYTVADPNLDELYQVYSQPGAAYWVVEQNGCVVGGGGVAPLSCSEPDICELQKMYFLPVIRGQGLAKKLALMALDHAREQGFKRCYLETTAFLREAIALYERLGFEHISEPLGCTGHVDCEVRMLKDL
Put plainly: isothermal titration calorimetry with purified OatA. Type of series: binding. (In general: ITC needs no label: the signal is the heat of the interaction.)

Substrate in the series “purified protein”: CC(=O)OC[C@H](N)C(=O)O
As to the kind of experiment: purified protein. It counts as biochemical, Salmonella enterica. The settings on record: acetyl-CoA positively cooperative (h = […]); no OAS binding seen by ITC under conditions tested, suggesting AcCoA binds before OAS.

Usually Kd stands for the equilibrium constant for the complex coming apart. Low values mean higher affinity, high ones lower affinity. In the case of `CC(=O)SCCNC(=O)CCNC(=O)[C@H](O)C(C)(C)COP(=O)(O)OP(=O)(O)OC[C@H]1O[C@@H](n2cnc3c(N)ncnc32)[C@H](O)[C@@H]1OP(=O)(O)O` [acetyl-CoA], at OatA (formerly YjgM), the dissociation constant Kd was approximately 22 µM.

B1: OatA (formerly YjgM) (Salmonella enterica subsp. enterica serovar Typhimurium str. LT2) (protein)
chain: MNNVASPTLTVRRITTADNAAIARVIRQVSAEYGLTADKGYTVADPNLDELYQVYSQPGAAYWVVEQNGCVVGGGGVAPLSCSEPDICELQKMYFLPVIRGQGLAKKLALMALDHAREQGFKRCYLETTAFLREAIALYERLGFEHISEPLGCTGHVDCEVRMLKDL
Usually Km stands for the concentration of substrate that gives half-maximal velocity. In the case of B1, the Michaelis constant (Km) in “purified protein” amounted to 740 µM.
